Some test systems named below: COLO 205 colon; HS 578T breast; KM12 colon; MALME-3M melanoma; NCI-H226 lung; OVCAR-3 ovarian; OVCAR-8 ovarian; SF-268 CNS; SK-MEL-2 melanoma; UACC-257 melanoma.
What all share (assay): inhibition of tumour cell growth, NCI panel, 48 h

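Assay format: 96-well plates, 48-hour exposure. GI50 is the concentration that inhibits growth by half. Definition used: TGI = concentration required for complete inhibition of growth.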

Take `N#CSc1c[nH]c2ccc(/C=C/C(=O)/C=C(O)/C=C/c3ccc4[nH]cc(SC#N)c4c3)cc12`: the GI50 is 1.55 µM in the test with COLO 205 colon; 2.98 µM in the test with HS 578T breast; 1.66 µM in the test with KM12 colon; 2.22 µM with MALME-3M melanoma; 1.95 µM in the test on NCI-H226 lung; 0.515 µM in the test on OVCAR-3 ovarian. For the same molecule, the GI50 with OVCAR-8 ovarian was 2.46 µM; with SF-268 CNS, 2.65 µM; in the test on SK-MEL-2 melanoma, 3.23 µM; in the test on UACC-257 melanoma it was 2.79 µM. Moreover, the TGI was determined as 3.7 µM in the test with COLO 205 colon; 35.2 µM with HS 578T breast; 5.47 µM in the test on KM12 colon; 5.91 µM in the test on MALME-3M melanoma; 5.86 µM in the test on NCI-H226 lung; 4.06 µM in the test with OVCAR-3 ovarian. Also, the TGI in the test on OVCAR-8 ovarian was over 100 µM; with SF-268 CNS it was 13.1 µM; in the test with SK-MEL-2 melanoma it was 12.3 µM; in the test with UACC-257 melanoma it was 12.5 µM.

`C=C1C(=O)O[C@@H]2C[C@@]3(C)CCC[C@H](C)C3=C[C@H]12` (tested in a mixture with another compound): the TGI in the test with COLO 205 colon was found to be 3.18 µM; with HS 578T breast, 17.3 µM; in the test on KM12 colon it was 8.89 µM; in the test on MALME-3M melanoma, 2.42 µM; in the test with NCI-H226 lung it was 16.6 µM; in the test with OVCAR-3 ovarian, 3.44 µM. Also, the TGI in the test on OVCAR-8 ovarian is 3.13 µM; in the test with SF-268 CNS it was 7.2 µM; in the test on SK-MEL-2 melanoma, 5.41 µM; in the test on UACC-257 melanoma, 3.75 µM.

Take `CCN(Cc1ccccc1)c1ccc(/C=C2\COc3ccccc3C2=O)cc1`: the GI50 with COLO 205 colon was over 1000 µM; in the test with HS 578T breast, over 1000 µM; in the test with KM12 colon it was 376 µM; with MALME-3M melanoma, over 1000 µM; with NCI-H226 lung it was over 1000 µM; with OVCAR-3 ovarian, 288 µM. Further, the GI50 in the test with OVCAR-8 ovarian, with SF-268 CNS, with SK-MEL-2 melanoma and with UACC-257 melanoma was over 1000 µM throughout. For the same molecule, the TGI with COLO 205 colon, in the test on HS 578T breast, in the test with KM12 colon, with MALME-3M melanoma, with NCI-H226 lung and in the test with OVCAR-3 ovarian was over 1000 µM each time. Further, the TGI with OVCAR-8 ovarian, with SF-268 CNS, in the test with SK-MEL-2 melanoma and in the test with UACC-257 melanoma was over 1000 µM throughout.

Regarding `C=C(C)[C@@H]1CC[C@]2(C(=O)OC)CC[C@]3(C)[C@H](CC[C@@H]4[C@@](C)(CCc5nn[nH]n5)[C@H](C(=C)C)CC[C@]43C)[C@@H]12`, the GI50 with COLO 205 colon was 19.7 µM; with HS 578T breast it was 19.8 µM; in the test with KM12 colon, 10.7 µM; in the test with MALME-3M melanoma, 16.3 µM; in the test on NCI-H226 lung, 15.3 µM; in the test on OVCAR-3 ovarian, 13.5 µM. Moreover, the GI50 in the test with OVCAR-8 ovarian was 28.6 µM; in the test on SF-268 CNS, 15.7 µM; in the test on SK-MEL-2 melanoma, 16.7 µM; in the test with UACC-257 melanoma it was 23.9 µM. Also, the TGI is 47.9 µM in the test on COLO 205 colon; 53.8 µM in the test with HS 578T breast; 25 µM in the test on KM12 colon; 31.7 µM in the test with MALME-3M melanoma; 47.7 µM in the test with NCI-H226 lung; 27 µM with OVCAR-3 ovarian. The TGI in the test with OVCAR-8 ovarian is over 100 µM; in the test with SF-268 CNS, 34.9 µM; with SK-MEL-2 melanoma it was 39.5 µM; with UACC-257 melanoma, 79.9 µM.

Turning to `Cc1cc(NC(=O)NCCCOc2ccc(N3C(N)=NC(N)=NC3(C)C)cc2Cl)ccc1S(=O)(=O)F`, the GI50 in the test on COLO 205 colon was 1.17 µM; with HS 578T breast it was 2.77 µM; with KM12 colon, 0.631 µM; in the test with MALME-3M melanoma it was 1.84 µM; in the test on NCI-H226 lung, 12.6 µM; in the test with OVCAR-3 ovarian, 2.79 µM. Also, the GI50 is 2.52 µM in the test with OVCAR-8 ovarian, 0.569 µM in the test on SF-268 CNS, 2.43 µM in the test with SK-MEL-2 melanoma and 4.09 µM with UACC-257 melanoma. For the same molecule, the TGI is 17.5 µM in the test on COLO 205 colon; 35 µM in the test on HS 578T breast; 17 µM in the test with KM12 colon; 25.4 µM in the test on MALME-3M melanoma; over 100 µM in the test with NCI-H226 lung; over 53.9 µM with OVCAR-3 ovarian. The TGI with OVCAR-8 ovarian is over 100 µM; in the test with SF-268 CNS it was over 58.9 µM; in the test on SK-MEL-2 melanoma, 65.9 µM; in the test on UACC-257 melanoma, 30.9 µM.

In the case of `CC(C)(C)CNCCO`, the TGI in the test on COLO 205 colon, with HS 578T breast, with KM12 colon, in the test on MALME-3M melanoma, with NCI-H226 lung and with OVCAR-3 ovarian was over 100 µM throughout. Further, the TGI with OVCAR-8 ovarian, in the test with SF-268 CNS, in the test with SK-MEL-2 melanoma and in the test on UACC-257 melanoma was over 100 µM each time.

On to `COCCn1c(Nc2ccc(C(=O)NO)cc2)nc2ccccc21`, for which the GI50 with COLO 205 colon was 2.75 µM; in the test with HS 578T breast, 3.43 µM; in the test on KM12 colon it was 3.65 µM; in the test on MALME-3M melanoma, 2.07 µM; in the test with NCI-H226 lung, 13.7 µM; in the test with OVCAR-3 ovarian, 3.24 µM. The GI50 was 2.69 µM in the test with OVCAR-8 ovarian, 4.9 µM in the test with SF-268 CNS, 5.33 µM in the test with SK-MEL-2 melanoma and 1.77 µM with UACC-257 melanoma. Further, the TGI with COLO 205 colon is 7.88 µM; with HS 578T breast, 34.3 µM; with KM12 colon, 15.1 µM; with MALME-3M melanoma, 9.02 µM; in the test with NCI-H226 lung it was 36.9 µM; in the test on OVCAR-3 ovarian, 14.1 µM. Moreover, the TGI in the test with OVCAR-8 ovarian came to 16 µM; in the test with SF-268 CNS it was 17.5 µM; with SK-MEL-2 melanoma it was 50.3 µM; in the test with UACC-257 melanoma it was 14.1 µM.

Regarding `Cc1ccc(NC(=O)c2ccoc2)cc1-c1ccc(C(=O)NCC2CC2)cc1`, the GI50 in the test on COLO 205 colon was over 25 µM; with HS 578T breast it was over 19.3 µM; with KM12 colon, over 25 µM; in the test with MALME-3M melanoma, over 12.9 µM; in the test with NCI-H226 lung, over 19.5 µM; in the test on OVCAR-3 ovarian, over 17.9 µM. Moreover, the GI50 with OVCAR-8 ovarian is over 25 µM; with SF-268 CNS, over 25 µM; with SK-MEL-2 melanoma, over 25 µM; in the test on UACC-257 melanoma, over 17.7 µM. The TGI in the test on COLO 205 colon, in the test on HS 578T breast, in the test on KM12 colon, with MALME-3M melanoma, in the test with NCI-H226 lung and with OVCAR-3 ovarian was over 25 µM each time. Moreover, the TGI with OVCAR-8 ovarian, in the test with SF-268 CNS, with SK-MEL-2 melanoma and in the test with UACC-257 melanoma was over 25 µM throughout.

Source of the values: PubChem BioAssay (NCI).
